Counter-ions that a name gives are not always drawn. One block for each compound: values may come before it.
Tests used:
[1] = target: T1, Sodium/glucose cotransporter 2 (Homo sapiens, UniProt P31639); test: Competitive inhibition of human SGLT2 expressed in CHO-K1 cells assessed as inhibition of [14C]-alpha-methylglucoside uptake; format: cell-based
T1 sequence (P31639 whole entry): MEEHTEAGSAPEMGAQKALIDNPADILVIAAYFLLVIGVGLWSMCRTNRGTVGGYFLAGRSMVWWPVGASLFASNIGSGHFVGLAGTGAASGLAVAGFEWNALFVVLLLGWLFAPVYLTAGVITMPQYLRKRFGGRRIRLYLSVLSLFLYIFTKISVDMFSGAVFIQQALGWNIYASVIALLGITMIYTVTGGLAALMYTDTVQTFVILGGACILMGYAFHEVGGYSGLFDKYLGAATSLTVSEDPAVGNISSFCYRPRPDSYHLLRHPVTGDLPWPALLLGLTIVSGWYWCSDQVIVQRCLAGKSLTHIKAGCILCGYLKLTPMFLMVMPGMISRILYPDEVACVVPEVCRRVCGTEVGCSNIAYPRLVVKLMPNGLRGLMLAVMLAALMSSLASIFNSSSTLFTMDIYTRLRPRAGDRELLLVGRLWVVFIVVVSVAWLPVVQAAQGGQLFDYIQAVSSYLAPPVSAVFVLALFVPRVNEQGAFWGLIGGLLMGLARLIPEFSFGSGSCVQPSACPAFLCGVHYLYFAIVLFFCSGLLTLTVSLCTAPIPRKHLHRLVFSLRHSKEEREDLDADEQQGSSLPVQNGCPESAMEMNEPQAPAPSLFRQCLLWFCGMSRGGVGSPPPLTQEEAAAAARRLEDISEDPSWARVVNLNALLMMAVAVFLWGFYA

[2] = system: Hepatitis C virus; test: Antiviral activity against HCV genotype 1a; format: functional, organism-based, Hepacivirus hominis; settings: subtype 1a
[3] = Half life of compound in human plasma in presence of CYP3A inhibitor ritonavir; format: ADME, organism-based; settings: with ritonavir (CYP3A inhibitor)
[4] = target: Vascular endothelial growth factor receptor 2 (Homo sapiens, UniProt P35968); test: Inhibition of VEGF2 receptor (unknown origin) by ELISA
Chain of Vascular endothelial growth factor receptor 2 (P35968 whole entry): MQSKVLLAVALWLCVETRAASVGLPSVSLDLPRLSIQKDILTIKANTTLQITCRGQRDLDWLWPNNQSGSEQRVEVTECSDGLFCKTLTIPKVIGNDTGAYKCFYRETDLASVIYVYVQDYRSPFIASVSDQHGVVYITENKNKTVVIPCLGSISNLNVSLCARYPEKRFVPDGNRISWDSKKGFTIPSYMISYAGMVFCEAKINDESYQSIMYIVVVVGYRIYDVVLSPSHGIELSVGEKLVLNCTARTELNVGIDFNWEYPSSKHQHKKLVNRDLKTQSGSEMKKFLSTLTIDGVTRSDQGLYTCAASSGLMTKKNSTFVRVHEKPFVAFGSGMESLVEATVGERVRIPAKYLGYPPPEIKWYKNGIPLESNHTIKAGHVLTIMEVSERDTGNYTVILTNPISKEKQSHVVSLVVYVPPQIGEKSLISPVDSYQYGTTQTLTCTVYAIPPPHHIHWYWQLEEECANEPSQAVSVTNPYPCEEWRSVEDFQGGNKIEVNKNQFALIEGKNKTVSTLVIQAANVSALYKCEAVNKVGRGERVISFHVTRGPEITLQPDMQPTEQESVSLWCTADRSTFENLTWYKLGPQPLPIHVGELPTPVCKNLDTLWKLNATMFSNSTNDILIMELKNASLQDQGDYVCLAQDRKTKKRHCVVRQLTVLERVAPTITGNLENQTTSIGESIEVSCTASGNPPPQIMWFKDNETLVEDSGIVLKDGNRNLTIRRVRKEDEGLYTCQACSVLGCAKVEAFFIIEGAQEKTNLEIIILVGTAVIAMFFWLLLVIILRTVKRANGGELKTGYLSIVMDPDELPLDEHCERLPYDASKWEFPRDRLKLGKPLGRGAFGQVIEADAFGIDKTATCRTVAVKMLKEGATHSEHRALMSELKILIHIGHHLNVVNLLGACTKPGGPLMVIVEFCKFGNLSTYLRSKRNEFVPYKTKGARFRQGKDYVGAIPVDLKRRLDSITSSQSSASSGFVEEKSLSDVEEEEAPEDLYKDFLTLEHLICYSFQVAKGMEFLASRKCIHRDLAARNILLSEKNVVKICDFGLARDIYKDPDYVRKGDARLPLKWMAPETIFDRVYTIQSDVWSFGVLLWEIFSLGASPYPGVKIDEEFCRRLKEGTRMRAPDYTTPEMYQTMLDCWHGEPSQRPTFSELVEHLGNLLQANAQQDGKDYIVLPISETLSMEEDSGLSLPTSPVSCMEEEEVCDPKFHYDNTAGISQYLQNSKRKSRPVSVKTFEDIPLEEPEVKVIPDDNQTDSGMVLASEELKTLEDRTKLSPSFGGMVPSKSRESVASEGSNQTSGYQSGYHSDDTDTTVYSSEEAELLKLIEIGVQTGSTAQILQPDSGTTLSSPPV

Ki [1]: 1.1 nM
SMILES: CCOc1ccc(Cc2cc([C@@H]3S[C@H](CO)[C@@H](O)[C@H](O)[C@H]3O)c(OC)cc2C)cc1

EC50 [2]: 1 nM | half-life [3]: 5.5 h
SMILES: Cc1cnc(C(=O)N[C@H]2CCCCC/C=C\[C@@H]3C[C@@]3(C(=O)NS(=O)(=O)C3CC3)NC(=O)[C@@H]3C[C@@H](Oc4nc5ccccc5c5ccccc45)CN3C2=O)cn1.O.O

IC50 [4]: 1 nM
SMILES: N#CC1(c2ccc(NC(=O)c3cccnc3NCc3ccncc3)cc2)CCCC1 [RIVOCERANIB MESYLATE]

From ChEMBL document CHEMBL3779889, “Synthetic approaches to the 2014 new drugs” (Bioorg Med Chem, 2016)
